# From US8106024B2, “Method of treating cancer with an RPN2 gene expression inhibitor” (Taisho Pharmaceutical Co., Ltd., priority 2006, dated 2012)
# Assays:
# PC-9/CDDP cell = test: Caspase activity in cisplatin-resistant lung cancer cells; format: cell-based, human; conditions: 3 days
# Description: (§1) A reagent for measurement of apoptosis was added to the plate after the measurement of the luciferase activity in Test Example 1, and the Caspase activity was measured. […] The Caspase activation rate was calculated with the control siRNA as 0%.
# To suppress RPN2 gene expression RPN2 siRNA was transduced into PC-9/CDDP cell which is a cell line of human lung cancer ([…], differentiated gland cancer), and resistant to cisplatin (Cis) that is a anti-cancer drug. Then, the cell was cultured for 3 days in the presence of or in the absence of cisplatin (0.3 μM). Then, Caspase activity was measured in the same way as described in Test Example 2. In addition, for comparison, the same test was conducted also for the system to which control siRNA not suppressing any gene expression was introduced.
# Luciferase gene (GL3) = test: siRNA introduction efficiency (suppression of luciferase activity); format: cell-based; conditions: MCF7-ADR-Luc, atelocollagen transfection array
# Description: Luciferase gene (GL3) was stably transfected into multidrug-resistant MCF7-ADR cells of which the parental Cell line is MCF7 breast cancer cell. The cell line was expressing luciferase and designated as MCF7-ADR-Luc.
# The MCF7-ADR-LUC cell obtained in (2) was inoculated into the array prepared in (1) in 4×10^3 cell number/well, and cultured for 3 days in the presence of 1 nM docetaxel (DOC). To the live cells were added luciferin, and from the luminescence value, cell growth inhibition rate and luciferase siRNA introduction efficiency were measured.
# Moreover, siRNA introduction efficiency was evaluated with the suppression rate of the luciferase activity by introduction of luciferase siRNA (GL3siRNA: dsRNA including a sense chain of Sequence No. 7 and an antisense chain of Sequence No. 8), separately from siRNA corresponding to each gene. In addition, luciferin (0.5 mM final concentration: Promega KK) was added to the medium, and the luciferase activity was measured immediately by a luminescence plate reader (ARVO: PerkinElmer, Inc.). Introduction of GL3 siRNA suppressed the luciferase activity by 80% in comparison with the control siRNA.
# MCF7-ADR-Luc cells [1] = test: Apoptosis induction test in a nude mouse (TUNEL staining); format: in vivo; conditions: dosed 6 weeks after transplant; siRNA/atelocollagen intratumoral + 20 mg/kg docetaxel; tumor collected after 4 days
# Description: 1×10^7 MCF7-ADR-Luc cells suspended in 100 μl PBS (−) were transplanted into the mammary fat pad of the nude mouse (4 weeks old, scalpel). After 6 weeks, siRNA and DOC, or siRNA alone was administered. Atelocollagen in the final concentration of 5 mg/ml (w/vol) and siRNA in 1 nmol per tumor were mixed, and then 200 μl of atelocollagen/siRNA was administered into the tumor. At the same time, 20 mg/kg of docetaxel was administered into the abdominal cavity. After 4 days, the tumor was collected, and subjected to TUNEL staining (In Situ Cell Death Detection Kit: F. Hoffmann-La Roche Ltd.). The nucleus was subjected to counter staining with DAPI (4′,6-diamidino-2-phenylindole).
# RPN2 gene [2] = test: RPN2 gene expression suppression test in a nude mouse (real-time RT-PCR of tumor); format: in vivo; conditions: 1 nmol siRNA/atelocollagen per tumor + 20 mg/kg docetaxel, tumor collected after 1 day
# Description: 1×10^7 MCF7-ADR-Luc cells suspended in 100 μl PBS (−) were transplanted into the mammary fat pad of the nude mouse (4 weeks old, scalpel). After 7 days, RPN2 siRNA and DOC were administered. Herein, atelocollagen in the final concentration of 5 mg/ml (w/vol) and RPN2 siRNA in 1 nmol per tumor were mixed, and then 200 μl of atelocollagen/siRNA was administered into the tumor. At the same time, 20 mg/kg of docetaxel was administered into the abdominal cavity. After 1 day, the tumor was collected and the total RNA was isolated, and RPN2 gene expression amount was measured with real-time RT-PCR (SYBR ExScript RT-PCR Kit: TaKaRa, LightCycler Real-Time PCR System: F. Hoffmann-La Roche Ltd.).
# The RPN2 gene expression amount was measured in the same method as Test Example 5 except that RPN2 siRNA and DOC were administered at 6 weeks after MCF7-ADR-Luc cells were transplanted into the mammary fat pad of the nude mouse (4 weeks old, scalpel).
# RPN2 gene [3] = test: RPN2 gene expression suppression test (real-time PCR); format: cell-based; conditions: MCF7-ADR-Luc, 3 days, atelocollagen transfection array; remaining expression
# Description: Into the atelocollagen cell transfection array prepared in Test Example 1 (1) were inoculated MCF7-ADR-Luc cells. After 3 days, cDNA was synthesized directly from the cell lysate, and real-time PCR was conducted, to investigate the RPN2 gene expression amount (SuperScript III Platinum CellsDirect Two-Step qRT-PCR: Invitrogen).
# MCF7-ADR-Luc cells [4] = test: Tumor growth test in a nude mouse; format: in vivo; conditions: 1 nmol siRNA/atelocollagen per tumor intratumoral + 20 mg/kg docetaxel i.p., 7 days after dosing, vs control siRNA
# Description: According to the protocol shown in FIG. 6, 1×10^7 MCF7-ADR-Luc cells suspended in 100 μl PBS (−) were transplanted into the mammary fat pad of the nude mouse (4 weeks old, scalpel). After 7 days when the tumor radius reached about 5 mm, siRNA and DOC were administered. Herein, atelocollagen in the final concentration of 5 mg/ml (w/vol) and siRNA in 1 nmol per tumor were mixed, and then 200 μl of atelocollagen (manufactured by KOKEN CO., LTD.)/siRNA was administered into the tumor. At the same time, 20 mg/kg of docetaxel was administered into the abdominal cavity. After 7 days, the tumor radius was measured to compare the tumor volumes.
# MCF7-ADR-Luc cells [5] = test: Apoptosis induction test, Caspase-3/7 activity; format: cell-based; conditions: 3 days
# Description: as §1
# After 3 days, Caspase activity was measured in the same way as described in Test Example 2.
# MCF7-ADR-Luc cells [6] = test: Apoptosis induction test, Hoechst staining; format: cell-based; conditions: vs control siRNA
# Description: Moreover, in addition to the Caspase activity, apoptosis induction was investigated with observation by Hoechst staining (the cells were washed with PBS (−), added with 4% PFA-0.1% Triton X-100-1 mg/ml Hoechst 33342/in PBS (−), and fixed and stained at room temperature for 20 minutes. The cells were washed with PBS (−), and then observed under fluorescence microscope.).
# HepG2 = test: Cell survival in human liver cancer cells (CellTiter-Glo); format: cell-based
# Description: HepG2, which is a cell line of human liver cancer, was inoculated into a 96 well plate in 5000/well. […] The control siRNA (dsRNA including a sense chain of Sequence No. 5 and an antisense chain of Sequence No. 6) was introduced as the negative control. At the same time with the siRNA, DOC was added in 1 nM of the final concentration. After the culture for 3 days, in order to determine the cell survival rate in each well, a quantification reagent for the live cells (CellTiter-Glo substrate: Promega KK) was added to each well, and the plate was stirred for 2 minutes, and left for 10 minutes. The luminescence was measured by a luminescence plate reader (ARVO: PerkinElmer).
molecule,measurement,setting,value
"N.N.[Cl][Pt][Cl] [cisplatin, reference compound]","Caspase activity, Cis+ versus Cis−","PC-9/CDDP cell; control siRNA system, cisplatin 0.3 μM",no difference
GL3 siRNA: luciferase siRNA: dsRNA including a sense chain of Sequence No. 7 and an antisense chain of Sequence No. 8 (sense CUUACGCUGAGUACUUCGANN; antisense UCGAAGUACUCAGCGUAAGNN; chemistry not given here; listed as Homo sapiens),suppression of luciferase activity in comparison with the control siRNA,Luciferase gene (GL3),80%
"RPN2 siRNA: dsRNA including a sense chain of Sequence No. 3 and an antisense chain of Sequence No. 4 (sense GGCCACUGUUAAACUAGAACA; antisense UUCUAGUUUAACAGUGGCCUG; listed as RNA, chemistry not given here; listed as Homo sapiens)",apoptosis cells in tumor (TUNEL staining),MCF7-ADR-Luc cells [1],many apoptosis cells were found
same,"RPN2 gene expression suppressed by, in comparison with control siRNA group",RPN2 gene [2]; dosed 6 weeks after transplant,about 40%
same,"RPN2 gene expression suppressed by, in comparison with control siRNA group",RPN2 gene [2]; dosed 7 days after transplant,about 20%
same,RPN2 gene expression suppressed to,RPN2 gene [3],about 25%
same,tumor volume,MCF7-ADR-Luc cells [4],significant tumor shrinkage
same,Caspase activity,"MCF7-ADR-Luc cells [5]; 1 nM docetaxel, vs control siRNA",induced strongly
same,Caspase activity (apoptosis),MCF7-ADR-Luc cells [5]; in the absence of DOC,apoptosis is induced
same,Caspase activity (apoptosis),"PC-9/CDDP cell; cisplatin-treated (0.3 μM, Cis+)",significant apoptosis was induced
same,Caspase activity (apoptosis increase),PC-9/CDDP cell; cisplatin-untreated (Cis−),slight
same,"nucleus morphology by Hoechst staining (aggregation, fragmentation)",MCF7-ADR-Luc cells [6],apoptosis is induced
same,"cancer cell growth suppression (luminescence intensity, RLU)","HepG2; HepG2, siRNA alone, Lipofectamine 2000, 3 days",showed cancer cell growth suppression effects alone
same,"cancer cell growth suppression (luminescence intensity, RLU)","HepG2; HepG2, siRNA with 1 nM DOC, 3 days",potentiating the cancer cell growth suppression effects of DOC
